Measurements reported in article PMC7827406, “Structure–Activity Relationship (SAR) Study of Spautin-1 to Entail the Discovery of Novel NEK4 Inhibitors” (International Journal of Molecular Sciences, 2021).
Like-named read-outs stand apart in the source and are kept apart here.

Columns and labels:
Experiment in all cases: biochemical
Design in all cases: Eurofins KinaseProfiler full panel at Km ATP, residual kinase activity (%) relative to DMSO
IR(h), activated = target: T1, IR(h), activated (Homo sapiens, UniProt P06213)
T1 construct: gene INSR
T1 sequence (P06213 whole entry): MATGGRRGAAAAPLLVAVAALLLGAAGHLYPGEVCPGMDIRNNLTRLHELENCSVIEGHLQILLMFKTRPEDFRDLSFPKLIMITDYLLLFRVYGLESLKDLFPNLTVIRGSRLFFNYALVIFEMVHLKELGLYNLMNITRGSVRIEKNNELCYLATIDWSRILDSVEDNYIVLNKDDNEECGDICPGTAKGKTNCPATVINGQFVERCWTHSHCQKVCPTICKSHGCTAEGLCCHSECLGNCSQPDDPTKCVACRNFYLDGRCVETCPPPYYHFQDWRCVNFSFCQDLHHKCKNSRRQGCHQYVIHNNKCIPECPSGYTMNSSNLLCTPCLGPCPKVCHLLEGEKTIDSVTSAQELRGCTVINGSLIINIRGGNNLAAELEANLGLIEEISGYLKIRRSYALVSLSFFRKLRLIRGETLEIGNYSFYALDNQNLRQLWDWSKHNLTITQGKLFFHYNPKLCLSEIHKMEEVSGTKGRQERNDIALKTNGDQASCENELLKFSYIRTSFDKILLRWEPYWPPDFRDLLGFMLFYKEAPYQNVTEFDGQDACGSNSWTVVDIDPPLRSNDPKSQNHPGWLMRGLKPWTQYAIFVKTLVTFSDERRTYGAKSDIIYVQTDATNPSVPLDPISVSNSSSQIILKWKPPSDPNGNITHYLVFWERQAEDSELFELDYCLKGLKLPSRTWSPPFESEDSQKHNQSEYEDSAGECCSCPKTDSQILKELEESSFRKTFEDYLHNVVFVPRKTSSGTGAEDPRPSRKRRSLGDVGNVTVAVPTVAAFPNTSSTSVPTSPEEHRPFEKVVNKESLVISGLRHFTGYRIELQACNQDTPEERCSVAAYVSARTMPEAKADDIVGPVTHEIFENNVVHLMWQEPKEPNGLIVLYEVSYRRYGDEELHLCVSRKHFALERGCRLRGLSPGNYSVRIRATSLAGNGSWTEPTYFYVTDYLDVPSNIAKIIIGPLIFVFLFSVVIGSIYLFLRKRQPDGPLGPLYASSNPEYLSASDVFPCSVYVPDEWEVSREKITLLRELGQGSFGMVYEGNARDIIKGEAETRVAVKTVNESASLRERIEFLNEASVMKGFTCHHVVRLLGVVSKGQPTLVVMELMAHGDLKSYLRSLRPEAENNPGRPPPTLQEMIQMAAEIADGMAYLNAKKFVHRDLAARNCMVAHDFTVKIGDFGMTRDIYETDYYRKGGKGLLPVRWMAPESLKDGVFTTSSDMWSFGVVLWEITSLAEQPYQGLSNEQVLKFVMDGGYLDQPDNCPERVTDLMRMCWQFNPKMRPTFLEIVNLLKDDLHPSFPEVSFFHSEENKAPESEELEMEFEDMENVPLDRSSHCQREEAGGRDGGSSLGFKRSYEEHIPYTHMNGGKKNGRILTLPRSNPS
Summary of the method: (§1)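 Two 10 µM single-concentration screens were run: a competition-binding screen, in which DNA-tagged kinase bound to immobilized ligands was quantified by qPCR, and a radiometric activity panel at Km ATP. Each is expressed as residual kinase activity (%).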

CDK4/cyclinD3(h) = CDK4/cyclinD3(h) (Homo sapiens, UniProt P11802)
CDK4/cyclinD3(h), sequence (P11802 whole entry): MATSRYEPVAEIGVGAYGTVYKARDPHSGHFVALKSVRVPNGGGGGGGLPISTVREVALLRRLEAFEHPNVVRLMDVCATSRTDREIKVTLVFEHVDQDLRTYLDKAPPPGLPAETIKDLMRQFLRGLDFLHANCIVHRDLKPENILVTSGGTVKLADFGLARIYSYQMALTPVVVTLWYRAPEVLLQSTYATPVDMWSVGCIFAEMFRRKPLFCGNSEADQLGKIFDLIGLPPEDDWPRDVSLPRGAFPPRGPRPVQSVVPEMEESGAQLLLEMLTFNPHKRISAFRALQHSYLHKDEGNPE
CDK4/cyclinD3(h), sequence (P30281 whole entry partner): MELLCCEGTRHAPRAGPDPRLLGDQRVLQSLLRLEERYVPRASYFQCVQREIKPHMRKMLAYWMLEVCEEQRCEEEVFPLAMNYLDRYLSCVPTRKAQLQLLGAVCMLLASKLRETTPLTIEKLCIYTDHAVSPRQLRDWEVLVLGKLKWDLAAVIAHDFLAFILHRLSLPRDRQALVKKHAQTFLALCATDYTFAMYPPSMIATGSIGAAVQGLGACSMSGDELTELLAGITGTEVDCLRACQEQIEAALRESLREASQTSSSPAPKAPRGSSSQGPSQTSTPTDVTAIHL
Summary of the method: as §1

GRK3(h) = target: T2, GRK3(h) (Homo sapiens, UniProt P35626)
T2 sequence (P35626 1-688): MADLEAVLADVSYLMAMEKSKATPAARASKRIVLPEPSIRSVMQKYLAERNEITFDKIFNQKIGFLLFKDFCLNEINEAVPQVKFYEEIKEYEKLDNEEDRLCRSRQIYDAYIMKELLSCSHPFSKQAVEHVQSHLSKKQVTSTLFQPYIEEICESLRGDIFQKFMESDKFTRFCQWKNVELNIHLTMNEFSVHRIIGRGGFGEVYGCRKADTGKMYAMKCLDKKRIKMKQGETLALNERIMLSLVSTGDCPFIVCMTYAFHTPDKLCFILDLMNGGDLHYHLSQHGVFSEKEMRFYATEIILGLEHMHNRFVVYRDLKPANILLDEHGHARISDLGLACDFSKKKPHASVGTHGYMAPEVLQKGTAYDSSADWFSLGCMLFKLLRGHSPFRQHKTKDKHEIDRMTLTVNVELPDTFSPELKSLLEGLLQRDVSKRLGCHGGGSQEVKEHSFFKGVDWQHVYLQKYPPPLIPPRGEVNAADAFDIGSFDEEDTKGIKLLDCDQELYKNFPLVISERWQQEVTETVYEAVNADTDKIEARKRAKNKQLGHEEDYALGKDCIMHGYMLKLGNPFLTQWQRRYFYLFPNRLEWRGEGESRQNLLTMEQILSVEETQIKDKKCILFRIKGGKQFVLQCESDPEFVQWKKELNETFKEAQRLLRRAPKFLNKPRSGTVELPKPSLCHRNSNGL
Summary of the method: as §1

TNIK(h) = TNIK(h) (Homo sapiens, UniProt Q9UKE5)
TNIK(h), sequence (Q9UKE5 whole entry): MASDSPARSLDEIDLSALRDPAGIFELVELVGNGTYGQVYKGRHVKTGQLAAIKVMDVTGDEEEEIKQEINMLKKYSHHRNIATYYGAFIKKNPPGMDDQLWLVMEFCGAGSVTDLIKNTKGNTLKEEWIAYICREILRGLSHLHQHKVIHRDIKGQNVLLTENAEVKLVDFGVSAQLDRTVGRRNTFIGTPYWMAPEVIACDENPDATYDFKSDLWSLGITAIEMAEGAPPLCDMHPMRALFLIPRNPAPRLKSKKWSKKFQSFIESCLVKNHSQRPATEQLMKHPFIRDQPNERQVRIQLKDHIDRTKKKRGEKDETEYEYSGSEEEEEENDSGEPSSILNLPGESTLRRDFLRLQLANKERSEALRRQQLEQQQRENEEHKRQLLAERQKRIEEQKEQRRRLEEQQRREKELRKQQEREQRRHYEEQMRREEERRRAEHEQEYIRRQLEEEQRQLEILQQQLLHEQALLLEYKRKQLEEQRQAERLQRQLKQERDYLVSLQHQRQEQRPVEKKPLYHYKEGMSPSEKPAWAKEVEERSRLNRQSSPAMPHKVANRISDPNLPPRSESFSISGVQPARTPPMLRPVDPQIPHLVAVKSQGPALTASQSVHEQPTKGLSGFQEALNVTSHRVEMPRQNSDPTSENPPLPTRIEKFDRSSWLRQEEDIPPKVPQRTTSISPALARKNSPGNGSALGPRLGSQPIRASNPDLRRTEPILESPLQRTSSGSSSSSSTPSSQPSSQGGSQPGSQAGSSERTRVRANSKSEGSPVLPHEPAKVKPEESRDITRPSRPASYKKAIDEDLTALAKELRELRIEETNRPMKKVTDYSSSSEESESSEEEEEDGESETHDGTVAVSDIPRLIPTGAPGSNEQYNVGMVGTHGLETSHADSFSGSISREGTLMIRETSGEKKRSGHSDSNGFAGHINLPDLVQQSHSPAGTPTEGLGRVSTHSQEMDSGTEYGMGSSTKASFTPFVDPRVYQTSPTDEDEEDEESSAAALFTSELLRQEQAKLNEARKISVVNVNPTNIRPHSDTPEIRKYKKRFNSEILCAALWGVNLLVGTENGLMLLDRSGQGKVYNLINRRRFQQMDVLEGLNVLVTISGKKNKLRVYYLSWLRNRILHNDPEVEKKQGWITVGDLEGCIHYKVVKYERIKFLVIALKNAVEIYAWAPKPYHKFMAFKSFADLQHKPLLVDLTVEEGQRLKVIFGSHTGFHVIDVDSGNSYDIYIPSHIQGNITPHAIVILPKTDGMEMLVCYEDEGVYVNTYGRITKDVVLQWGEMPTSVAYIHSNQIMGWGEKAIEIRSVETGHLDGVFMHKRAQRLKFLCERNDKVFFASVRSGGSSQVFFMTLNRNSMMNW
Summary of the method: as §1

PKG1α(h) = target: T3, PKG1α(h) (Homo sapiens, UniProt Q13976)
T3 construct: gene PRKG1; isoform 1alpha
T3 sequence (Q13976 1-671): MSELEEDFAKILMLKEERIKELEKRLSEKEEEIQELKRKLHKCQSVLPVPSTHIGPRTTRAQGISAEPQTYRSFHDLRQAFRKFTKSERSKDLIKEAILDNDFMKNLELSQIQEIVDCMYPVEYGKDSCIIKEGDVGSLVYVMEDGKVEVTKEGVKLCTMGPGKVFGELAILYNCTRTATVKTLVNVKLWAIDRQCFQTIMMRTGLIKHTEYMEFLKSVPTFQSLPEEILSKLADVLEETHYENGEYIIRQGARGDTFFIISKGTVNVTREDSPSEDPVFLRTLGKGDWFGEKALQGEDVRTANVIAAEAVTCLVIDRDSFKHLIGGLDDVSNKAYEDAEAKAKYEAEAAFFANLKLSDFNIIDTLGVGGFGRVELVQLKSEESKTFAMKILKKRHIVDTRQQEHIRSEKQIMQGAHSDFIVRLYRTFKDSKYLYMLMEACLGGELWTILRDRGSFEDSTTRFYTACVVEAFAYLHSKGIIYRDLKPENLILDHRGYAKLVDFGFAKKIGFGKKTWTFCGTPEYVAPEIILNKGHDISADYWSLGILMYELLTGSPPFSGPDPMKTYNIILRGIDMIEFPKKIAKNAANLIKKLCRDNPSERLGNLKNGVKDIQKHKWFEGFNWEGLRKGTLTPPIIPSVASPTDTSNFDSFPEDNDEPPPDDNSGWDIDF
Summary of the method: as §1

CaMKIIγ(h) = target: T4, CaMKIIγ(h) (Homo sapiens, UniProt Q13555)
T4 construct: gene CAMK2G
T4 sequence (Q13555 whole entry): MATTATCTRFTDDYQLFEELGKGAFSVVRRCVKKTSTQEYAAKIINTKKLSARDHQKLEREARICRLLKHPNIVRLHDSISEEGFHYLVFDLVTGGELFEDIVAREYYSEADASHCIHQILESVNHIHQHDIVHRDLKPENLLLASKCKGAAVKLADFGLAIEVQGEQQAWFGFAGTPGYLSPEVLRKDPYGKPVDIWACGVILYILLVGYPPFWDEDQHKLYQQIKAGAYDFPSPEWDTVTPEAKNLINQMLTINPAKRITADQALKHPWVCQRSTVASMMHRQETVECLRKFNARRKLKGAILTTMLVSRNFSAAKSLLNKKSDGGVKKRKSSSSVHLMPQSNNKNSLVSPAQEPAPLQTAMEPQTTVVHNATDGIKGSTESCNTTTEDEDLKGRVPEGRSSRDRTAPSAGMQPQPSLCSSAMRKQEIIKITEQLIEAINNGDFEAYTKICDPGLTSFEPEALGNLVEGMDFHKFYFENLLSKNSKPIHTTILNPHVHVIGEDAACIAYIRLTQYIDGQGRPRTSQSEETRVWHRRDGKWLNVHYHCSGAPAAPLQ
Summary of the method: as §1

MELK(h) = MELK(h) (Homo sapiens, UniProt Q14680)
MELK(h), sequence (Q14680 whole entry): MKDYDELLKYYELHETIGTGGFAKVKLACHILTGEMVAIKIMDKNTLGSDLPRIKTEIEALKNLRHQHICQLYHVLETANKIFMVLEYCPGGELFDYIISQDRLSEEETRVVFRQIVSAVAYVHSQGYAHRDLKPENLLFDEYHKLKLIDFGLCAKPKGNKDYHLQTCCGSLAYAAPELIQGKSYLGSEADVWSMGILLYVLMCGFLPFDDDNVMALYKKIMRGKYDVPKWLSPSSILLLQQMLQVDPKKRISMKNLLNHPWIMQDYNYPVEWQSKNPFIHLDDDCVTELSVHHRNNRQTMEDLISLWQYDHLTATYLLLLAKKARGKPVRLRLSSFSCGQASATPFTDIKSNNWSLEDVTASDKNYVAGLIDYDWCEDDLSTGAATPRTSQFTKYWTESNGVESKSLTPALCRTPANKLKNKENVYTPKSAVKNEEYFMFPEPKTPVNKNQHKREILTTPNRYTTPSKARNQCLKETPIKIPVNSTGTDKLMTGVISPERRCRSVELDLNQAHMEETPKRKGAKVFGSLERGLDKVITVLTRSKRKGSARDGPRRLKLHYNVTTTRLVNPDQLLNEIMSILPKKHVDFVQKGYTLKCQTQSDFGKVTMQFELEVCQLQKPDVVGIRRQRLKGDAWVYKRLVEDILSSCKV
Summary of the method: as §1

[1] = read-out: Residual activity (%) 5ay
[2] = read-out: Residual activity (%) Spautin-1 5aa
[3] = read-out: Residual activity (%) 5at
[4] = read-out: Residual activity (%) 5as

COc1ccc2ncnc(Nc3cccc(F)c3)c2c1 [5ay, N-(3-Fluorophenyl)-6-Methoxy-4-Quinazolinamine] gave a remaining activity at 10 µM (IR(h), activated; [1]) of 71%, a remaining activity at 10 µM (CDK4/cyclinD3(h); [1]) of 100% and a remaining activity at 10 µM (GRK3(h); [1]) of 93%. It also gave a remaining activity at 10 µM (TNIK(h); [1]) of 65%, a remaining activity at 10 µM (PKG1α(h); [1]) of 95% and a remaining activity at 10 µM (CaMKIIγ(h); [1]) of 41%. The remaining activity at 10 µM (MELK(h); [1]) was 95%.

Molecule Fc1ccc(CNc2ncnc3ccc(F)cc23)cc1 [5aa, 6-Fluoro-N-(4-fluorobenzyl)-4-Quinazolinamine] has a remaining activity at 10 µM (IR(h), activated; [2]) of 98%, a remaining activity at 10 µM (CDK4/cyclinD3(h); [2]) of 101% and a remaining activity at 10 µM (GRK3(h); [2]) of 95%. The remaining activity at 10 µM (TNIK(h); [2]) was 72%, the remaining activity at 10 µM (PKG1α(h); [2]) was 91% and the remaining activity at 10 µM (CaMKIIγ(h); [2]) was 83%. For the same molecule, the remaining activity at 10 µM (MELK(h); [2]) was 86%.

Molecule Fc1ccc2ncnc(NCCc3ccc(Cl)cc3)c2c1 [5at, N-[2-(4-Chlorophenyl)Ethyl]-6-Fluoro-4-Quinazolinamine] has a remaining activity at 10 µM (IR(h), activated; [3]) of 76%, a remaining activity at 10 µM (CDK4/cyclinD3(h); [3]) of 95% and a remaining activity at 10 µM (GRK3(h); [3]) of 97%. The remaining activity at 10 µM (TNIK(h); [3]) was 63%, the remaining activity at 10 µM (PKG1α(h); [3]) was 93% and the remaining activity at 10 µM (CaMKIIγ(h); [3]) was 75%. It also gave a remaining activity at 10 µM (MELK(h); [3]) of 73%.

In the case of Fc1ccc(CCNc2ncnc3ccc(F)cc23)cc1 [5as, 6-Fluoro-N-[2-(4-Fluorophenyl)Ethyl]-4-Quinazolinamine], the remaining activity at 10 µM (IR(h), activated; [4]) is reported as 64%, the remaining activity at 10 µM (CDK4/cyclinD3(h); [4]) is reported as 97% and the remaining activity at 10 µM (GRK3(h); [4]) is reported as 92%. It also gave a remaining activity at 10 µM (TNIK(h); [4]) of 83%, a remaining activity at 10 µM (PKG1α(h); [4]) of 96% and a remaining activity at 10 µM (CaMKIIγ(h); [4]) of 74%. The remaining activity at 10 µM (MELK(h); [4]) was 90%.
